From US20110059948A1, “QUINOLINE, NAPHTHALENE AND CONFORMATIONALLY CONSTRAINED QUINOLINE OR NAPHTHALENE DERIVATIVES AS ANTI-MYCOBACTERIAL AGENTS” (priority 2008, published 2011) come the findings set out here.

Test [1] concerns clinical isolate MDR (BTB 08-072). The test can be described thus: microbe, parasite or virus in culture. Type of test: cell-based, Mycobacterium tuberculosis. To be noted: for MIC against MDR-TB (BTB 08-072), strain resistant to all front line drugs: agar dilution, Middlebrook 7H10; for MIC: Mycobacterium tuberculosis, read-out: MIC against MDR-TB (BTB 08-072), strain resistant to all front line drugs.

Test [2] has as its system clinical isolates resistant to one or more standard antitubercular drugs (MDR-TB strains). The experiment in a line: microbe, parasite or virus in culture. Type of test: cell-based, Mycobacterium tuberculosis. To be noted: for MIC M. tuberculosis Resistant (n = 10): clinical isolates, n = 10 strains tested.

SMILES strings stand for the structures.

Turning to `ON=C1c2ccccc2-c2c1c(N1CCN(c3ccccn3)CC1)nc1ccc(Br)cc21` [Example 134], in test [1], the “MIC against MDR-TB (BTB 08-072), strain resistant to all front line drugs” value (shortened to “MIC against MDR-TB”) is more than 6.25 µg/mL. Moreover, the “MIC M. tuberculosis Resistant (n = 10)” value in test [2] is less than 6.25 µg/mL.

Consider `CC(c1cc(F)ccc1Oc1nc2ccc(-n3cc(-c4ccccc4)nn3)cc2cc1Cc1ccccc1)n1ccnc1` (centres unmarked) [Example 23], for which, in test [1], the “MIC against MDR-TB” value is more than 6.25 µg/mL. Moreover, in test [2], the “MIC M. tuberculosis Resistant (n = 10)” value is less than 6.25 µg/mL.

Take `CC(O)c1cc(F)ccc1Oc1nc2ccc(NC(=O)Nc3cccc([N+](=O)[O-])c3)cc2cc1Cc1ccccc1` (centres unmarked) [Example 31]: the “MIC against MDR-TB” value in test [1] is more than 6.25 µg/mL. Besides, the “MIC M. tuberculosis Resistant (n = 10)” value in test [2] was less than 6.25 µg/mL.

`CO[C@H]1/C=C/O[C@@]2(C)Oc3c(C)c(O)c4c(O)c(c(/C=N/N5CCN(C)CC5)c(O)c4c3C2=O)NC(=O)/C(C)=C\C=C\[C@H](C)[C@H](O)[C@@H](C)[C@@H](O)[C@@H](C)[C@H](OC(C)=O)[C@@H]1C` [Refampin, Rifampicin, reference compound]: the MIC in test [1] was more than 16 µg/mL.

For the molecule `NNC(=O)c1ccncc1` [Isoniazid, reference compound], the MIC in test [1] was more than 16 µg/mL; in test [2] (Mycobacterium tuberculosis, read-out: MIC M. tuberculosis Resistant (n = 10)), more than 16 µg/mL.

Consider `COc1cccc(NC(=O)Nc2ccc3nc(Oc4ccc(F)cc4C(C)O)c(Cc4ccccc4)cc3c2)c1` (centres unmarked) [Example 26], for which, in test [1], the “MIC against MDR-TB” value is more than 4.0 µg/mL. Also, in test [2], the “MIC M. tuberculosis Resistant (n = 10)” value was less than 4.0 µg/mL.
